One data set deals with BVDV. Kind of data set: microbe, parasite or virus in culture. In kind it is cell-based. The settings on record: Bovine viral diarrhea virus isolates and strains, MDBK, read-out: BVDV EC50.
Data set [1] in a line: in vitro. The settings on record: hamster.
The nature of data set [2]: Cytotoxicity assay (CC50), DENV-2 column.
Another data set concerns MT-4. The data set is described as follows: MT-4 cell test (Table 2). The data set is classed as cell-based. The settings on record: MT-4 cells, no virus named.
For the next data set, the system named is Yellow Fever. Kind of data set: microbe, parasite or virus in culture. The data set is classed as cell-based, Yellow fever virus, vaccine strain 17D (YFV-17D).
Another data set has as its system West Nile. Kind of data set: Antiviral activity against West Nile virus (Table 2). The conditions noted are these: read-out: West Nile EC50.
For another data set, the system named is DENV-2. The data set is described as follows: Antiviral activity against DENV-2 (Table 2).
Data set [3] in a line: in vitro. The conditions noted are these: cattle (Bos taurus).
Data set [4] can be described thus: Cytotoxicity assay (CC50), West Nile column.
Data set [5] relates to host cells of the DENV-2 test (not named). Kind of data set: Cytotoxicity assay (CC50), DENV-2 column. The conditions noted are these: read-out: DENV-2 CC50; concentration reducing cell number by 50%; cell line not named.
Data set [6] relates to host cells of the West Nile test (not named). Kind of data set: Cytotoxicity assay (CC50), West Nile column. The conditions noted are these: read-out: West Nile CC50; concentration reducing cell number by 50%; cell line not named.

Read-outs that look alike come from different tables or passages of the source.

Take `Nc1nc(=O)n2ccn([C@@H]3O[C@H](CO)[C@@H](O)[C@H]3O)c2n1` [2-amino-8-(β-D-ribo-furanosyl)-imidazo[1,2-a]-s-triazin-4-one]: the EC50 with BVDV is 31 µM; in the data set with MT-4 (Homo sapiens, MT4) it was greater than 100 µM; with Yellow Fever (Yellow fever virus, BHK-21, read-out: Yellow Fever EC50), greater than 100 µM; with West Nile, greater than 100 µM; in the data set on DENV-2 (Dengue virus, DENV2, read-out: DENV-2 EC50), greater than 100 µM. In addition, the CC50 in “in vitro [1]” and in the data set “in vitro [3]” was greater than 100 µM each time. Besides, the CC50 at 4 days in data set [2] and in data set [4] was greater than 100 µM each time.
Consider `Nc1nc(=O)n2ccn([C@H]3C[C@H](O)[C@@H](CO)O3)c2n1` [2-amino-8-(β-D-2-deoxyribo-furanosyl)-imidazo[1,2-a]-s-triazin-4-one], for which the CC50 (in data set [5]; in the data set on BT cells; in data set [6]; in the data set on BHK-21 cells) was greater than 100 µM in each case. Besides, the EC50 is greater than 100 µM in the data set on MT-4; greater than 100 µM in the data set with Yellow Fever (read-out: Yellow Fever EC50); greater than 100 µM with West Nile; greater than 100 µM with DENV-2 (read-out: DENV-2 EC50, DENV-2).

What is called EC50 is the concentration at which the effect is half-maximal.

The record behind these values is US20060040944A1, “5-Aza-7-deazapurine derivatives for treating Flaviviridae” (priority 2004, published 2006).
